# Measured values from patent US9388164B2, “Methods of using pyruvate kinase activators” (AGIOS PHARMACEUTICALS, INC, priority 2011, dated 2016).
# Tests used:
# Type in all cases: biochemical
# PKR R510Q = PKR R510Q (Homo sapiens, UniProt P30613, R510Q); test: PKR R510Q Single Point Percent Activation Assay; conditions: compound at 1 μM; read-out: % Act. R510Q
# Procedure: PKR R510Q Single Point Percent Activation Assay
# (§1) A compound described herein was diluted with DMSO and tested at 1 μM concentration. The enzyme was diluted in 1× Buffer: (100 mM KCl, 50 mM Tris 7.5, 5 mM MgCl2, 1 mM DTT, 0.03% BSA). 2 μL of compound solution was first added into wells, and then 180 μL of enzyme solution was added. Assays were assembled except for ADP, and plates were stored for 60 minutes at RT. 20 μL ADP was added to start the assay and assay output was evaluated using OD340 at SpectraMax. The assay was run at room temperature.
# PKR R510Q (40 ng/well), Tris pH 7.5 (50 mM), KCl (100 mM), MgCl2 (5 mM), ADP (0.2 mM), PEP (0.11 mM), NADH (180 μM), LDH (0.5 units, Sigma 59023), DTT (1 mM) and BSA (0.03%).
# PKR R532W = PKR R532W (Homo sapiens, UniProt P30613, R532W); test: PKR R532W Single Point Percent Activation Assay; conditions: compound at 1 μM; read-out: % Act. R532W
# PKR R532W, sequence (P30613 whole entry R532W): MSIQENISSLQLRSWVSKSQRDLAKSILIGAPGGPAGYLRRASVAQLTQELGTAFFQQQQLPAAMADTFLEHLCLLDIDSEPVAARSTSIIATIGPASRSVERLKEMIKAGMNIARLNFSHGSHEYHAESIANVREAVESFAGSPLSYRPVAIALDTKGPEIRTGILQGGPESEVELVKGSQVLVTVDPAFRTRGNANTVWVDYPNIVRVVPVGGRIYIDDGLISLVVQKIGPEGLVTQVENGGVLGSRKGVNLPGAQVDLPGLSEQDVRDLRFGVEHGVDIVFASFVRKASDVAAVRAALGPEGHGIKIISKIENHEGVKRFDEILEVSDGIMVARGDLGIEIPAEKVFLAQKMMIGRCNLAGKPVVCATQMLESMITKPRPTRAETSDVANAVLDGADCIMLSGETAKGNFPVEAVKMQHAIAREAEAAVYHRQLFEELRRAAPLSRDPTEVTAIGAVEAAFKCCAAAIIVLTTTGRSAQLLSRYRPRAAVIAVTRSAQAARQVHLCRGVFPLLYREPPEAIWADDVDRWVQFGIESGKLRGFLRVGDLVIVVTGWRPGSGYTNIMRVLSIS
# Procedure: PKR R532W Single Point Percent Activation Assay
# as §1
# PKR R532W (100 ng/well), Tris pH 7.5 (50 mM), KCl (100 mM), MgCl2 (5 mM), ADP (0.36 mM), PEP (0.1 mM), NADH (180 μM), LDH (0.5 units, Sigma 59023), DTT (1 mM) and BSA (0.03%).
# PKR T384W = PKR T384W (Homo sapiens, UniProt P30613); test: PKR T384W Single Point Percent Activation Assay; conditions: compound at 1 μM
# PKR T384W, sequence (P30613 whole entry T384M): as the sequence (P30613 whole entry R532W) above, with T384M, W532R counted along it
# Procedure: PKR T384W Single Point Percent Activation Assay
# as §1, with “180 μL enzyme solution” for “180 μL of enzyme solution”
# PKR T384W soluble (300 ng/well), Tris pH 7.5 (50 mM), KCl (100 mM), MgCl2 (5 mM), ADP (0.08 mM), PEP (0.23 mM), NADH (180 μM), LDH (0.5 units, Sigma 59023), DTT (1 mM) and BSA (0.03%).
# PKR wt = PKR wt (Homo sapiens, UniProt P30613); test: PKR WT Single Point Percent Activation Assay; conditions: compound at 1 μM
# PKR wt, sequence (P30613 whole entry): as the sequence (P30613 whole entry R532W) above, with W532R counted along it
# Procedure: PKR WT Single Point Percent Activation Assay
# as §1
# PKR wt (100 ng/well), Tris pH 7.5 (50 mM), KCl (100 mM), MgCl2 (5 mM), ADP (0.48 mM), PEP (0.15 mM), NADH (180 μM), LDH (0.5 units, Sigma 59023), DTT (1 mM) and BSA (0.03%).
# PKR R510Q, sequence (P30613 whole entry R510Q): as the sequence (P30613 whole entry R532W) above, with R510Q, W532R counted along it
SMILES,activation at 1 µM (PKR R510Q),activation at 1 µM (PKR R532W),% Act. T384W (PKR T384W),activation at 1 µM (PKR wt)
O=C(OC1CN(C(=O)c2ccc(NS(=O)(=O)c3cccc4cccnc34)cc2)C1)c1ccccn1,101 to 500%,1 to 100%,B (a % activation at 1 μM of from 101 to 500),101 to 500%
COC1(Cc2ccccc2)CN(C(=O)c2ccc(NS(=O)(=O)c3cccc4cccnc34)cc2)C1,101 to 500%,101 to 500%,B (a % activation at 1 μM of from 101 to 500),101 to 500%
O=C(c1ccc(NS(=O)(=O)c2cccc3cccnc23)c(F)c1)N1CC(Oc2ccccc2)C1,101 to 500%,101 to 500%,B (a % activation at 1 μM of from 101 to 500),101 to 500%
Cc1cc(C(=O)N2CC(N(C)Cc3ccccc3)C2)ccc1NS(=O)(=O)c1cccc2cccnc12,101 to 500%,101 to 500%,A (a % activation at 1 μM of from 1 to 100),101 to 500%
Cc1cc(C(=O)N2CC(OC(=O)c3ccccn3)C2)ccc1NS(=O)(=O)c1cccc2cccnc12,101 to 500%,1 to 100%,A (a % activation at 1 μM of from 1 to 100),1 to 100%
O=C(c1ccc(NS(=O)(=O)c2cccc3cccnc23)cc1)N1CC(Nc2ccccc2)C1,1 to 100%,1 to 100%,A (a % activation at 1 μM of from 1 to 100),1 to 100%
COc1ccccc1NC1CN(C(=O)c2ccc(NS(=O)(=O)c3cccc4cccnc34)cc2)C1,101 to 500%,1 to 100%,A (a % activation at 1 μM of from 1 to 100),1 to 100%
COc1ccccc1NC1CN(C(=O)c2ccc(NS(=O)(=O)c3cccc4cccnc34)c(C)c2)C1,101 to 500%,1 to 100%,A (a % activation at 1 μM of from 1 to 100),1 to 100%
COc1ccccc1NC1CN(C(=O)c2ccc(NS(=O)(=O)c3cccc4cccnc34)c(F)c2)C1,1 to 100%,1 to 100%,A (a % activation at 1 μM of from 1 to 100),1 to 100%
COc1ccccc1NC1CN(C(=O)c2ccc(S(=O)(=O)Nc3cccc4cccnc34)cc2)C1,101 to 500%,101 to 500%,A (a % activation at 1 μM of from 1 to 100),101 to 500%
O=C(c1ccc(S(=O)(=O)Nc2cccc3cccnc23)cc1)N1CC(OCc2ccccc2)C1,101 to 500%,1 to 100%,B (a % activation at 1 μM of from 101 to 500),101 to 500%
Cc1cc(C(=O)N2CC(OCc3ccccc3)C2)ccc1NS(=O)(=O)c1cccc2cccnc12,101 to 500%,1 to 100%,B (a % activation at 1 μM of from 101 to 500),101 to 500%
O=C(NC1CN(C(=O)c2ccc(NS(=O)(=O)c3cccc4cccnc34)c(F)c2)C1)c1ccccn1,101 to 500%,1 to 100%,B (a % activation at 1 μM of from 101 to 500),101 to 500%
CN(c1ccccc1)C1CN(C(=O)c2ccc(NS(=O)(=O)c3cccc4cccnc34)cc2)C1,101 to 500%,101 to 500%,B (a % activation at 1 μM of from 101 to 500),101 to 500%
O=C(Cc1ccccc1)OC1CN(C(=O)c2ccc(NS(=O)(=O)c3cccc4cccnc34)cc2)C1,101 to 500%,1 to 100%,B (a % activation at 1 μM of from 101 to 500),101 to 500%
O=C(OC1CN(C(=O)c2ccc(NS(=O)(=O)c3cccc4cccnc34)c(F)c2)C1)c1ccccn1,101 to 500%,101 to 500%,B (a % activation at 1 μM of from 101 to 500),101 to 500%

SMILES,activation at 1 µM (PKR R510Q),activation at 1 µM (PKR R532W),% Act. T384W (PKR T384W),activation at 1 µM (PKR wt)
O=C(c1ccc(NS(=O)(=O)c2cccc3cccnc23)cc1)N1CC(NCc2ccccc2)C1,101 to 500%,101 to 500%,B (a % activation at 1 μM of from 101 to 500),101 to 500%
COc1ncccc1NC1CN(C(=O)c2ccc(NS(=O)(=O)c3cccc4cccnc34)c(C)c2)C1,101 to 500%,101 to 500%,B (a % activation at 1 μM of from 101 to 500),101 to 500%
COc1cccnc1NC1CN(C(=O)c2ccc(NS(=O)(=O)c3cccc4cccnc34)c(C)c2)C1,101 to 500%,101 to 500%,B (a % activation at 1 μM of from 101 to 500),101 to 500%
COc1ccccc1OC1CN(C(=O)c2ccc(NS(=O)(=O)c3cccc4cccnc34)cc2OC)C1,1 to 100%,101 to 500%,B (a % activation at 1 μM of from 101 to 500),101 to 500%
Cc1cc(C(=O)N2CC(Nc3ccncc3)C2)ccc1NS(=O)(=O)c1cccc2cccnc12,1 to 100%,1 to 100%,A (a % activation at 1 μM of from 1 to 100),101 to 500%
COc1ccncc1NC1CN(C(=O)c2ccc(NS(=O)(=O)c3cccc4cccnc34)c(C)c2)C1,1 to 100%,1 to 100%,B (a % activation at 1 μM of from 101 to 500),101 to 500%
COc1ccccc1OC1CN(C(=O)c2ccc(NS(=O)(=O)c3cccc4cccnc34)c(F)c2)C1,1 to 100%,101 to 500%,B (a % activation at 1 μM of from 101 to 500),101 to 500%
Cc1cc(C(=O)N2CC(OC(=O)Nc3ccccn3)C2)ccc1NS(=O)(=O)c1cccc2cccnc12,101 to 500%,101 to 500%,A (a % activation at 1 μM of from 1 to 100),1 to 100%
COc1cc(C(=O)N2CC(OC(=O)Nc3ccccn3)C2)ccc1NS(=O)(=O)c1cccc2cccnc12,101 to 500%,1 to 100%,A (a % activation at 1 μM of from 1 to 100),1 to 100%
COc1cc(NS(=O)(=O)c2cccc3cccnc23)ccc1C(=O)N1CC(OC(=O)Nc2ccccn2)C1,101 to 500%,101 to 500%,B (a % activation at 1 μM of from 101 to 500),101 to 500%
COc1cc(C(=O)N2CC(Oc3ccccc3OC)C2)ccc1NS(=O)(=O)c1cccc2cccnc12,101 to 500%,101 to 500%,B (a % activation at 1 μM of from 101 to 500),101 to 500%
O=C(Nc1ccccn1)NC1CN(C(=O)c2ccc(NS(=O)(=O)c3cccc4cccnc34)cc2)C1,101 to 500%,101 to 500%,B (a % activation at 1 μM of from 101 to 500),101 to 500%
O=C(Nc1ccccn1)OC1CN(C(=O)c2ccc(NS(=O)(=O)c3cccc4cccnc34)c(F)c2)C1,101 to 500%,101 to 500%,B (a % activation at 1 μM of from 101 to 500),101 to 500%
CC(C)NC(=O)NC1CN(C(=O)c2ccc(NS(=O)(=O)c3cccc4cccnc34)cc2)C1,101 to 500%,101 to 500%,B (a % activation at 1 μM of from 101 to 500),101 to 500%
Cc1cc(C(=O)N2CC(NC(=O)NC(C)C)C2)ccc1NS(=O)(=O)c1cccc2cccnc12,101 to 500%,101 to 500%,B (a % activation at 1 μM of from 101 to 500),101 to 500%
O=C(c1ccc(NS(=O)(=O)c2cccc3cccnc23)cc1)N1CC(=Cc2ccccc2)C1,1 to 100%,1 to 100%,A (a % activation at 1 μM of from 1 to 100),1 to 100%
